Patent publication US20260374766A1, “METHODS FOR TREATING CANCER” (Antares Therapeutics, Inc., priority 2022, published 2026)

Assays:
[1] = target: T1, p53 Y220C mutant protein (amino acid residues 94-293) (Homo sapiens, UniProt P04637, Y220C); experiment: Surface Plasmon Resonance (SPR) assay, Kd_kinetic; type: binding; details: SPR; p53 Y220C; read-out: SPR P53 Y220C KD kinetic
T1 construct: p53 Y220C mutant protein (amino acid residues 94-293)
Method in brief: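 Temperature held at 16 or 20 °C during Biacore 8K runs. Buffer: 50 mM Tris, pH 7.5, 100 mM NaCl, 1 mM DTT, 0.01% Brij35, 0.05% Tween-20, 1% DMSO.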

[2] = tested on: H1299 p53 R273H; experiment: Cell Proliferation Assay (CellTiter-Glo, CTG), H1299 p53 R273H (NClH1299-inducible p53 R273H); type: cell-based; details: Homo sapiens, NCI-H1299, 120 h, NClH1299-inducible p53 R273H cells, 5 days, CellTiter-Glo
Method in brief: (§1)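 NClH1299 lines stably transduced with Tet-inducible p53 Y220C or R273H, plus NUGC3, were treated with compound for 5 days at 250-500 cells/well. IC50 derived from CellTiter-Glo luminescent signal after 10 min room-temperature incubation.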

[3] = target: p53 Y220C (Homo sapiens, UniProt P04637, Y220C); experiment: Luciferase Reporter Assay (Luc), p53 response element, NClH1299 cells with inducible p53 Y220C; type: cell-based; details: luciferase reporter, NClH1299 inducible p53 Y220C, 6 hour; for AC50: read-out: Luc P53 Y220C AC50
Method in brief: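 H1299 cells induced with 0.5 ug/mL doxycycline for 24 hours, then exposed to compound for 6 hours. p53 response-element luciferase read by One-Glo luminescence after 5 min shaking at room temperature.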

[4] = tested on: NUGC3 p53 Y220C; experiment: Cell Proliferation Assay (CellTiter-Glo, CTG), NUGC3 p53 Y220C; type: cell-based; details: Homo sapiens, NUGC-3, 120 h, NUGC3 cells, 5 days, CellTiter-Glo
Method in brief: as §1

[5] = tested on: H1299 p53 Y220C; experiment: Cell Proliferation Assay (CellTiter-Glo, CTG), H1299 p53 Y220C (NClH1299-inducible p53 Y220C); type: cell-based; details: Homo sapiens, NCI-H1299, 120 h, NClH1299-inducible p53 Y220C cells, 5 days, CellTiter-Glo
Method in brief: as §1

T1 sequence (P04637 94-293, stated change not applied): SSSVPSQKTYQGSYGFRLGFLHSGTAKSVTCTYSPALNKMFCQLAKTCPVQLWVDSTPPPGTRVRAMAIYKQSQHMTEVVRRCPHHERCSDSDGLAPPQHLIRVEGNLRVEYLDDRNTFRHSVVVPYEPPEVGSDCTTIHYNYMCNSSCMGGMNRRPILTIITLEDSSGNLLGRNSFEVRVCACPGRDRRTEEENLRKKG

Kd [1] [nM] | IC50 [2] [nM] | AC50 [3] [nM] | Emax [3] [%] | IC50 [5] [nM] | Compound | IC50 [4] [nM]
< 10 | ≥ 10000 | 750 to 1500 | 80 to 90 | 750 to 1500 | CNC(=O)c1cnc(OC)c(NCC#Cc2cc3c(N[C@@H]4CNC[C@@H]4F)nccn3c2SC(F)(F)F)c1 [Example 313] | 750 to 1500
< 10 | ≥ 10000 | < 750 | > 90 | < 750 | CN1CC[C@@H](Nc2cccn3c(SC(F)(F)F)c(C#CCNc4ccc(C(N)=O)cc4)nc23)[C@@H](F)C1 [Example 314] | < 750
< 10 | ≥ 10000 | 750 to 1500 | 80 to 90 | < 750 | CN1CC[C@@H](Nc2cccn3c(SC(F)(F)F)c(C#CCNc4ccc(P(C)(C)=O)cc4)nc23)[C@@H](F)C1 [Example 315] | < 750
< 10 | ≥ 10000 | < 750 | > 90 | < 750 | CCNC(=O)c1ccc(NCC#Cc2nn3c(N[C@@H]4CCN(C)C[C@@H]4F)cccc3c2SC(F)(F)F)c(OC)c1 [Example 316] | < 750
10 to 100 | ≥ 10000 | > 3000 | 70 to 80 | > 3000 | CNC(=O)c1ccc(OC)c(NCC#Cc2nc3c(N[C@@H]4CCN(C)C[C@@H]4F)cccn3c2SC(F)(F)F)c1F [Example 320] | > 3000
< 10 | ≥ 10000 | 750 to 1500 | > 90 | 750 to 1500 | CNC(=O)c1ccc(NCC#Cc2nc3c(N[C@@H]4CN(C)C[C@@H]4F)nccn3c2SC(F)(F)F)c(OC)c1 [Example 323] | 750 to 1500
< 10 | ≥ 10000 | < 750 | > 90 | < 750 | CNC(=O)c1ccc(NCC#Cc2cc3c(N[C@@H]4CN(C)C[C@@H]4F)nccn3c2SC(F)(F)F)c(OC)c1 [Example 325] | < 750
< 10 | ≥ 10000 | < 750 | > 90 | < 750 | CNC(=O)c1ccc(OC)c(NCC#Cc2cc3c(N[C@@H]4CCNC[C@@H]4F)nccn3c2SC(F)F)c1 [Example 326] | < 750
< 10 | ≥ 10000 | < 750 | > 90 | < 750 | CNC(=O)c1cnc(OC)c(NCC#Cc2cc3c(N[C@@H]4CN(C)C[C@@H]4F)nccn3c2SC(F)F)c1 [Example 328] | < 750
< 10 | ≥ 10000 | < 750 | > 90 | < 750 | CNC(=O)c1cnc(OC)c(NCC#Cc2cc3c(N[C@@H]4CN(C)C[C@@H]4F)nccn3c2SC(F)(F)F)c1 [Example 330] | < 750
< 10 | ≥ 10000 | < 750 | > 90 | < 750 | CNC(=O)c1ccc(OC)c(NCC#Cc2cc3c(N[C@@H]4CN(C)C[C@@H]4F)nccn3c2SC(F)F)c1 [Example 331] | < 750
< 10 | ≥ 10000 | 1500 to 3000 | 80 to 90 | 1500 to 3000 | CNC(=O)c1ccc(OC)c(NCC#Cc2cc3c(N[C@@H]4CN(C)C[C@@H]4F)nccn3c2SC(F)F)n1 [Example 332] | > 3000
< 10 | ≥ 10000 | < 750 | > 90 | < 750 | CNC(=O)c1ccc(OC)c(NCC#Cc2cc3c(N[C@@H]4CCN(C)C[C@@H]4F)nccn3c2SC(F)F)n1 [Example 333] | < 750
10 to 100 | ≥ 10000 | > 3000 | 80 to 90 | 1500 to 3000 | CNS(=O)(=O)c1ccc(OC)c(NCC#Cc2cc3c(N[C@@H]4CCN(C)C[C@@H]4F)nccn3c2SC(F)F)c1 [Example 334] | > 3000
< 10 | ≥ 10000 | 1500 to 3000 | 80 to 90 | 1500 to 3000 | CNS(=O)(=O)c1ccc(OC)c(NCC#Cc2cc3c(N[C@@H]4CCN(C)C[C@@H]4F)nccn3c2SC(F)(F)F)c1 [Example 335] | 1500 to 3000
< 10 | < 5000 | < 750 | > 90 | < 750 | CNC(=O)c1cc(F)c(OC)c(NCC#Cc2cc3c(N[C@@H]4CCN(C)C[C@@H]4F)nccn3c2SC(F)(F)F)c1 [Example 337] | < 750

Kd [1] [nM] | IC50 [2] [nM] | AC50 [3] [nM] | Emax [3] [%] | IC50 [5] [nM] | Compound | IC50 [4] [nM]
< 10 | ≥ 10000 | < 750 | 80 to 90 | < 750 | COc1cc(S(C)(=O)=O)ccc1NCC#Cc1nn2c(N[C@@H]3CCN(C)C[C@@H]3F)cccc2c1SC(F)(F)F [Example 363] | < 750
< 10 | < 5000 | < 750 | 70 to 80 | < 750 | O=C(NCC1COC1)c1ccc(NCC#Cc2cc3c(N[C@@H]4CCNC[C@@H]4F)cccn3c2SC(F)(F)F)cc1 [Example 364] | < 750
< 10 | < 5000 | < 750 | 80 to 90 | < 750 | O=C(NC[C@H]1CCO1)c1ccc(NCC#Cc2cc3c(N[C@@H]4CCNC[C@@H]4F)cccn3c2SC(F)(F)F)cc1 [Example 365] | < 750
< 10 | 8000 to 10000 | < 750 | > 90 | < 750 | O=C(NCC1(O)CC1)c1ccc(NCC#Cc2cc3c(N[C@@H]4CCNC[C@@H]4F)cccn3c2SC(F)(F)F)cc1 [Example 367] | < 750
< 10 | 5000 to 8000 | < 750 | 80 to 90 | < 750 | O=C(NC[C@@H]1CCO1)c1ccc(NCC#Cc2cc3c(N[C@@H]4CCNC[C@@H]4F)cccn3c2SC(F)(F)F)cc1 [Example 368] | < 750
< 10 | 5000 to 8000 | < 750 | > 90 | < 750 | O=C(NC[C@H]1COCCO1)c1ccc(NCC#Cc2cc3c(N[C@@H]4CCNC[C@@H]4F)cccn3c2SC(F)(F)F)cc1 [Example 369] | < 750
< 10 | 5000 to 8000 | < 750 | > 90 | < 750 | COc1cc(S(C)(=O)=O)ccc1NCC#Cc1cc2c(N[C@@H]3CCNC[C@@H]3F)cccn2c1SC(F)(F)F [Example 370] | < 750
< 10 | 8000 to 10000 | < 750 | > 90 | < 750 | C[C@@H](O)[C@@H](C)NC(=O)c1ccc(NCC#Cc2cc3c(N[C@@H]4CCN(C)C[C@@H]4F)cccn3c2SC(F)(F)F)cc1 [Example 371] | < 750
< 10 | 8000 to 10000 | < 750 | > 90 | < 750 | CC(C)(O)CNC(O)c1ccc(NCC#Cc2cc3c(N[C@@H]4CCNC[C@@H]4F)cccn3c2SC(F)(F)F)cc1 (stereo partly drawn) [Example 372] | < 750
< 10 | ≥ 10000 | < 750 | 80 to 90 | < 750 | O=C(N[C@H]1C[C@H](O)C1)c1ccc(NCC#Cc2cc3c(N[C@@H]4CCNC[C@@H]4F)cccn3c2SC(F)(F)F)cc1 [Example 373] | < 750
< 10 | 8000 to 10000 | < 750 | > 90 | < 750 | COc1cc(C(=O)NCC(C)(C)O)ccc1NCC#Cc1cc2c(N[C@@H]3CCN(C)C[C@@H]3F)cccn2c1SC(F)(F)F [Example 375] | < 750
< 10 | ≥ 10000 | < 750 | > 90 | < 750 | C[C@H](O)[C@@H](C)NC(=O)c1ccc(NCC#Cc2cc3c(N[C@@H]4CCN(C)C[C@@H]4F)cccn3c2SC(F)(F)F)cc1 [Example 376] | < 750
< 10 | 5000 to 8000 | < 750 | > 90 | < 750 | COc1cc(C(=O)N2CC(C)(O)C2)ccc1NCC#Cc1cc2c(N[C@@H]3CCN(C)C[C@@H]3F)cccn2c1SC(F)(F)F [Example 377] | < 750
< 10 | ≥ 10000 | < 750 | 80 to 90 | < 750 | COc1cc(P(C)(C)=O)ccc1NCC#Cc1cn2c(N[C@@H]3CCN(C)C[C@@H]3F)cccc2c1SC(F)(F)F [Example 378] | < 750
< 10 | ≥ 10000 | < 750 | > 90 | < 750 | COc1cc(P(C)(C)=O)ccc1NCC#Cc1cc2c(N[C@@H]3CCNC[C@@H]3F)cccn2c1SC(F)(F)F [Example 379] | < 750
